According to ChEMBL document CHEMBL5308541, “MAIP: An Open-Source Tool to Enrich High-Throughput Screening Output and Identify Novel, Druglike Molecules with Antimalarial Activity” (ACS Med Chem Lett, 2023):
Where “and” joins values, the source holds several entries; their conditions need not be identical. Equal values may be shown once.

What was measured:
Plasmodium falciparum [1] = assay: Hit confirmation in dose-response curve in NF54 nanoGlo assay, at 72h; format: functional, organism-based, Erythrocyte; parameters: timepoint 72 hour; details: Plasmodium falciparum, NF54, Erythrocyte, 72 h
Plasmodium falciparum [2] = assay: Hit confirmation in dose-response curve in Dd2 pLDH assay, at 72h; format: functional, organism-based, Erythrocyte; parameters: timepoint 72 hour; details: Plasmodium falciparum, Dd2, Erythrocyte, 72 h
[3] = Hit confirmation in dose-response curve in HepG2 cytotoxicity assay, at 72h; format: toxicity, cell-based, Homo sapiens; parameters: timepoint 72 hour; details: human, HepG2 cells
Plasmodium falciparum [4] = assay: Hit confirmation in dose-response curve in NF54 nanoGlo assay, at 12h; format: functional, organism-based, Erythrocyte; parameters: timepoint 12 hour; details: Plasmodium falciparum, NF54, Erythrocyte, 12 h
Plasmodium falciparum [5] = assay: Hit confirmation in dose-response curve in NF54 pLDH assay, at 72h; format: functional, organism-based, Erythrocyte; parameters: timepoint 72 hour; details: Plasmodium falciparum, NF54, Erythrocyte, 72 h
Plasmodium falciparum [6] = assay: Re-testing in dose-response curve in Dd2 pLDH assay, at 72h; format: functional, organism-based, Erythrocyte; parameters: timepoint 72 hour
Plasmodium falciparum [7] = assay: Re-testing in dose-response curve in 3D7 pLDH assay, at 72h; format: functional, organism-based, Erythrocyte; parameters: timepoint 72 hour
HepG2 = assay: (§1) Re-testing in dose-response curve in HepG2 cytotoxicity assay, at 72h; format: toxicity, cell-based, Homo sapiens; parameters: timepoint 72 hour; details: hepg2
[8] = as §1; format: toxicity, cell-based, Homo sapiens; parameters: timepoint 72 hour; details: human, HepG2 cells
[9] = Plasmodium falciparum, Dd2, Erythrocyte, 72 h
[10] = Plasmodium falciparum, 3D7, Erythrocyte, 72 h

SMILES | IC50 (Plasmodium falciparum [1]) [µM] | IC50 (Plasmodium falciparum [2]) [µM] | IC50 at 72 h [3] [µM] | IC50 (Plasmodium falciparum [4]) [µM] | IC50 (Plasmodium falciparum [5]) [µM] | IC50 (Plasmodium falciparum [6]; [9]) [µM] | IC50 (Plasmodium falciparum [6]; erythrocyte) | IC50 (Plasmodium falciparum [7]; erythrocyte) | IC50 (HepG2) | IC50 at 72 h [8] [µM] | IC50 (Plasmodium falciparum [7]; [10]) [µM]
c1ccc2c(Nc3ccc4[nH]cnc4c3)c3ccccc3nc2c1 | 0.832 | 1.41 | > 10 | 1.82 | 1.7 | – | – | – | – | – | –
CCOc1cc(C(=O)NC2CCN(CC3CCCC3)CC2)cc(-c2ccccc2)c1OC | 1.48 | 1.58 | > 10 | 3.72 | 3.89 | 11.5 | 10.7 µM and 8.37 µM and 8.12 µM | 593 nM [middle of 6 runs] | 10.3 µM | 10 | –
CN(c1ccccc1)c1ccc(CN2CCN([C@H]3CCNC3)CC2)cc1 | 4.17 | 6.46 | > 10 | > 10 | 9.33 | – | – | – | – | – | –
CN1CCN(CCOc2ccccc2CN(C)Cc2cc3cc(F)ccc3[nH]2)CC1 | 4.07 | 5.62 | 10.2 | 6.92 | 6.17 | – | – | – | – | – | –
C[C@@H](CNC1CCN(C2CCN(C)CC2)CC1)c1cccc(Cl)c1 | 0.724 | 0.692 | > 10 | 1.7 | 0.891 | 1.38 | – | 633 nM [middle of 4 runs] | 8.18 µM | 9.55 | –
O[C@H](COc1ccccc1CNCc1cc(-c2ccccc2)[nH]n1)CN1CCCCC1 | 3.02 | 3.89 | > 10 | 7.76 | 3.98 | – | – | – | – | – | –
O=C(n1nnc2cc(Cl)c(Cl)cc21)C(F)(F)F | > 10 | 0.955 | > 10 | > 10 | 4.9 | 1.05 | 0.937 µM | 0.291 µM | 24.8 µM | 21 | 0.254
Brc1ccc2[nH]c3c(c2c1)CCCC3NC1CCc2[nH]cnc2C1 (stereo not drawn) | 1.35 | 1.7 | > 10 | 1.74 | 2.34 | – | – | 3.4 µM | 4.23 µM | 4.1 | ~3.04
Cc1ccc2[nH]cc(-c3cc(N4CCOCC4)nc(N)n3)c2c1 | 5.62 | 7.08 | > 10 | 9.77 | 7.59 | – | – | – | – | – | –
CCCc1cccc(CNC2CCN(C3CCN(C)CC3)CC2)c1 | 1.82 | 1.38 | > 10 | 4.79 | 1.55 | 1.37 | 1.41 µM | 620 nM [middle of 4 runs] | 7.92 µM | 11 | –
Cc1cc(N2CCC(N(C)Cc3cc(-c4ccccc4)n[nH]3)CC2)nc(N)n1 | 3.24 | 3.72 | > 10 | > 10 | 4.47 | – | – | – | – | – | –
CCN1C[C@H](Nc2nc(C)nc3sccc23)[C@@H](OC)C1 | 0.933 | 0.741 | > 10 | 1.29 | 1 | – | – | – | – | > 25 | > 25
CN(Cc1cn(CC(N)=O)c2ccccc12)CC1CCN(CCc2ccc(F)cc2)CC1 | 4.07 | 4.37 | > 10 | 7.41 | 4.17 | – | – | – | – | – | –
COc1ccc(-c2cncc(C(=O)NCC3CCN(CCN(C)C)CC3)c2)cc1 | 1.7 | 1.38 | > 10 | 2.95 | 1.38 | 2.3 | 3.11 µM | – | – | – | –
CNc1nc(C)c(-c2ccnc(Nc3cccc(S(C)(=O)=O)c3)n2)s1 | 2.82 | 6.46 | 0.78 | > 10 | > 10 | – | – | – | – | – | –
Cc1c(CN2CCC(O)(Cn3ccnc3)CC2)[nH]c2c(Cl)cccc12 | 1.7 | – | > 10 | 2.63 | 1.95 | – | – | 1.65 µM and 1.32 µM and 1.38 µM | 20.3 µM | – | –
COCCN1CC[C@H](CNC2CCN(c3ncc4ccc(F)cc4n3)CC2)C1 | 3.09 | 4.07 | > 10 | 5.62 | 4.57 | – | – | – | – | – | –
Cc1cnccc1N1CCCN(Cc2ccccc2OCCN2CCN(C)CC2)CC1 | 1.41 | 1.23 | > 10 | 2.45 | 1.2 | – | – | 0.75 µM and 0.903 µM | – | – | 0.68
c1ccc(-c2ccnc(C3CCN(CC45CNCC4C5)CC3)n2)cc1 (stereo not drawn) | 1.62 | 1.86 | > 10 | 2.88 | 1.91 | – | 1.59 µM | 0.859 µM | – | – | 0.714

SMILES | IC50 (Plasmodium falciparum [1]) [µM] | IC50 (Plasmodium falciparum [2]) [µM] | IC50 at 72 h [3] [µM] | IC50 (Plasmodium falciparum [4]) [µM] | IC50 (Plasmodium falciparum [5]) [µM] | IC50 (Plasmodium falciparum [6]; [9]) [µM] | IC50 (Plasmodium falciparum [6]; erythrocyte) | IC50 (Plasmodium falciparum [7]; erythrocyte) | IC50 (HepG2) | IC50 at 72 h [8] [µM] | IC50 (Plasmodium falciparum [7]; [10]) [µM]
CN(C[C@H](O)COc1cccc(CNCCCOc2cccnc2)c1)C1CCCCC1 | 5.13 | 6.92 | > 10 | > 10 | 6.17 | – | – | – | – | – | –
Cc1ccc(-c2cc(C(=O)NC3CCN(C4CCN(C)CC4)CC3)n[nH]2)cc1C | 0.955 | 0.955 | 7.76 | 1.55 | 1.38 | 1.19 | 1.23 µM | 0.597 µM | 7.03 µM | 5.93 | 0.621
CN1CCC(Oc2ccc(NC(=O)c3cn4ccnc4s3)cn2)CC1 | 1.29 | 0.933 | > 10 | 6.92 | 1.58 | – | – | 2.34 µM and 1.39 µM | 18.7 µM | > 25 | 2.13
FC(F)(F)c1ccc(N2CCC[C@H](NC3CCN(Cc4ccco4)CC3)C2)nc1 | 7.59 | 8.13 | > 10 | > 10 | 7.59 | – | – | – | – | – | –
COc1ccc(OC2CCN(C3CCCC3)CC2)c(C(=O)NCc2cccc3[nH]ccc23)c1 | 4.47 | 6.17 | > 10 | > 10 | 5.37 | – | – | – | – | – | –
c1ccc(CNc2ccc(-c3noc(C45CCCN(CCC4)C5)n3)cn2)cc1 | 2.09 | 1.99 | > 10 | 3.24 | 2.63 | – | – | 9.78 µM | 20.1 µM | 20.4 | ~9.41
CC1(N2CCC2)CCC(NC[C@H]2CCN(Cc3ccccc3)C2)CC1 (stereo partly drawn) | 3.24 | 1.82 | > 10 | 9.12 | 2.63 | 1.58 | 1.78 µM and 1.6 µM | 1.63 µM and 0.618 µM and 0.631 µM | – | – | –
Cc1ccn2cc(-c3ccc(N4CCC(NCc5cccnc5)CC4)cc3)nc2c1 | 3.72 | 5.37 | > 10 | > 10 | 5.25 | – | – | – | – | – | –
O=C(NC1CCN(CCOc2ccc(Cl)cc2)CC1)c1c[nH]c2ccncc2c1=O | 1.12 | 1.45 | > 10 | 3.16 | 1.41 | – | – | 0.606 µM and 0.883 µM | – | – | –
Fc1ccc(-n2cc(CNCCC3CCN(c4ccncc4)CC3)cn2)cc1 | 1.58 | 1.29 | > 10 | 3.55 | 1.74 | – | – | ~0.385 µM | 5.84 µM | 5.11 | 0.391
CN1CCN(CCCCNC2CC3CCC(C2)N3Cc2ccccc2)CC1 (stereo not drawn) | 3.02 | 1.83 | > 10 | > 10 | 3.02 | – | – | 1.08 µM | 22.8 µM and > 8.33 µM | – | –
Cc1cnccc1NCCNCc1ccc(OC(C)C)c(Cl)c1 | 1.05 | 0.977 | > 10 | 9.55 | 1.55 | – | – | 0.501 µM | 6.94 µM | 6.65 | 0.434
CN(C)C1(CNc2nc(C(F)(F)F)nc3cc(F)ccc23)CCCCCC1 | 1.02 | 1.66 | > 10 | > 10 | 0.724 | 1.74 | 1.76 µM | 0.36 µM | 9.28 µM | 8.91 | 0.46
c1ccc2c(CNCCC3CCN(c4ccncc4)CC3)csc2c1 | 1.86 | 1.45 | 12.3 | 7.41 | 1.82 | – | – | 0.418 µM | 5.07 µM | 4.25 | 0.449
O=C(CCc1nnc(-c2ccc(-c3ccccc3)cc2)o1)NC[C@@H]1CCCN2CCCC[C@H]12 | 4.07 | 6.46 | > 10 | 8.51 | 5.13 | – | – | – | – | – | –
Cc1ccc(-c2cccc3c(C(=O)NCCCN4CCC(N5CCCCC5)CC4)cc(C)nc23)cc1 | 1.2 | 1.17 | 5.01 | 1.41 | 1.2 | – | – | ~0.748 µM | 3.45 µM | 4.11 | 0.478
CN(C[C@H](O)COc1ccccc1CN1CCC(c2ccncc2)CC1)C1CCCCC1 | 5.89 | 5.5 | > 10 | > 10 | 5.37 | – | – | – | – | – | –
CN(C)C1CCN(CCN[C@H]2CCc3ccc(F)cc32)CC1 | 0.812 | 0.708 | > 10 | > 10 | 1.32 | – | – | 14.8 µM and 12.7 µM and 15.9 µM | – | > 25 | > 8.33
COc1ccc2c(O)c(Br)c(C)nc2c1 | 0.759 | 0.871 | > 10 | > 10 | 1.48 | – | – | 0.0908 µM | 21.9 µM | 21.6 | 0.0829
